Assay [1] has as its target T1, Human Progestin Receptor in T47-D Cells (Homo sapiens, UniProt P06401).
T1 construct: The human breast carcinoma (T-47D) cell line was used to assess RBA for progestin receptor; host or cells: T-47D human breast carcinoma cells
T1 sequence (P06401 1-933): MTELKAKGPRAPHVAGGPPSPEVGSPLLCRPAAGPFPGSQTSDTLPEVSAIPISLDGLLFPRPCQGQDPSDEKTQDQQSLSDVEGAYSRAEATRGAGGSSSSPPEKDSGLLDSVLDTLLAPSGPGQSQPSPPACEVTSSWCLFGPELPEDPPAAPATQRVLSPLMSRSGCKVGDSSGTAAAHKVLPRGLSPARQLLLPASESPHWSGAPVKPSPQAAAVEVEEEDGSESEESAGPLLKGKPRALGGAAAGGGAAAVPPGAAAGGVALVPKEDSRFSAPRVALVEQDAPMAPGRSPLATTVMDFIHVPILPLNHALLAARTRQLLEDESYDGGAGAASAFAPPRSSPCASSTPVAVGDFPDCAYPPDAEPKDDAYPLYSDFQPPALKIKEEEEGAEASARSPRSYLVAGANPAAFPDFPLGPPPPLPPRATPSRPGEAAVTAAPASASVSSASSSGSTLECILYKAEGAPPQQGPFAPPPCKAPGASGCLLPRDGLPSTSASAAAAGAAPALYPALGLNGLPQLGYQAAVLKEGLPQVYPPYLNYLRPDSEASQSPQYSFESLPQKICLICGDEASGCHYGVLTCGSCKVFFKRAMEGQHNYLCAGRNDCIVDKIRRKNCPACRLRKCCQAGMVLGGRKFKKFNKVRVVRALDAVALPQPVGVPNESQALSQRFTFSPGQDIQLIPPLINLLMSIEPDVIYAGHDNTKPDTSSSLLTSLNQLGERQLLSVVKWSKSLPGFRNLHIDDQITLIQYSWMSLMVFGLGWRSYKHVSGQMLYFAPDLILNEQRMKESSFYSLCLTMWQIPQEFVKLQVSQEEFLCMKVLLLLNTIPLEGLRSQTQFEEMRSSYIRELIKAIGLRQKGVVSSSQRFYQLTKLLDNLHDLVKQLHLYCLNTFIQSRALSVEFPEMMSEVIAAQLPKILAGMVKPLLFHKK
Briefly: Whole cell receptor binding (competition with 3H-R5020) in T-47D human breast carcinoma cells. The following applies: for pIC50: 50% displacement of 3H-R5020, T-47D cells, overnight incubation; for Relative Binding % Prog.: RBA relative to internal standard progesterone; for Relative Binding % Prog. / Relative Binding % R5020: ratio of concentrations causing 50% displacement, compared in the same assay; for Relative Binding % R5020: RBA relative to reference standard R5020 (promegestone). The procedure:
The biological activity of the compounds of this invention was examined by means of whole cell receptor binding studies.
Receptor Binding. The affinity of the compounds for hormone receptors was determined by standard procedures similar to those that have been described, inter alia, by Wagner et al., Proc. Natl. Acad. Sci., 93, 8739-8744 (1996) for COS-1 cells. The human breast carcinoma (T-47D) cell line was used to assess RBA for progestin receptor. The cell line used was obtained from ATCC (American Type Culture Collection) and stored frozen at -135° C. until a week before the assays were conducted. The cells were thawed and cultured to achieve the desired cell number (5 to 7 days on average). They were maintained at 37° C. with growth media until they were 90-100% confluent, at which time they were recovered from the growth flasks and dispersed into individual wells of a 12-well tissue culture plate at a count of 4×10^5 cells in one mL medium per well. After 24 h the cells adhered to the bottom of the 12-well plates. At this point, the receptor binding assay procedure was initiated by the addition of test or standard compounds with 3H-R5020 (promegestone). After incubation overnight, medium was removed, the cells were washed and solubilized and radioactivity was measured by liquid scintillation spectrometry. Nonspecific binding was determined by incubation with excess of unlabeled R5020 and subtracted from total binding to calculate specific binding. The progesterone binding assay was conducted with several concentrations of the reference standard (promegestone, R-5020) and an internal standard (progesterone). These hormones were allowed to compete with tritiated competitor (3H-promegestone, 3H-R5020) to estimate relative binding. Test steroids were tested at three or more concentrations between 0.01 to 1000 nM. If 50% displacement of the 3H-R5020 from the receptor was not achieved by the unknown, higher or lower concentrations were tested, as needed, to obtain that goal. All compounds were tested in duplicate for at least two assays. The percentage of specifically bound 3H-R5020 for each concentration tested was calculated and binding curves were generated by plotting the percentage of specifically bound 3H-R-5020 versus the concentration of the competitor. The relative binding activity (RBA) of the test compounds, relative to the reference standard (R5020) as well as the internal standard, was determined from the ratio of concentrations causing 50% displacement for each unknown and standard and expressed as a percentage value. These concentrations were obtained by graphical interpolation of the plots.
On the technique in general: Displacement assays read how much labelled ligand stays bound in the presence of the test substance.

The next assay has as its system human progestin receptor. The following applies: % the affinity of progesterone; Smith et al., J. Biol. Chem. 1974; cited from earlier work.

pIC50: −log10 of the molar value.

As to `CN(C)c1ccc([C@H]2C[C@@]3(C)[C@@H](CC[C@@]34CCC[S+]4[O-])[C@@H]3CCC4=CC(=O)CCC4=C32)cc1` (single isomer, unassigned) [Compound 21a, 11β-[4-(N,N-Dimethylamino)phenyl]-1'-oxo-spiro[estr-4,9-diene-17β,2'-thiolane]-3-one], in assay [1], the pIC50 (commonly −log10 of the IC50, conventionally taken in molar units) was 8.51; the “Relative Binding % Prog.” value is 825%; the “Relative Binding % R5020” value is 128%.
With `CN(C)c1ccc([C@H]2C[C@@]3(C)[C@@H](CC[C@@]34CCC[S+]4[O-])[C@@H]3CCC4=CC(=O)CCC4=C32)cc1` (single isomer, unassigned) [Compound 21b, 11β-[4-(N,N-Dimethylamino)phenyl]-1'-oxo-spiro[estr-4,9-diene-17β,2'-thiolane]-3-one], in assay [1], the pIC50 is 8.18, the “Relative Binding % Prog.” value amounted to 260% and the “Relative Binding % R5020” value is 43%.
On the same counts, the results for `CC(=O)c1ccc([C@H]2C[C@@]3(C)[C@@H](CC[C@@]34CCC[S+]4[O-])[C@@H]3CCC4=CC(=O)CCC4=C32)cc1` (single isomer, unassigned) [Compound 22a, 11β-(4-Acetylphenyl)-1'-oxo-spiro[estra-4,9-diene-17β,2'-thiolane]-3-one] are 6.74, 19% and 2%.
With `CC(=O)c1ccc([C@H]2C[C@@]3(C)[C@@H](CC[C@@]34CCC[S+]4[O-])[C@@H]3CCC4=CC(=O)CCC4=C32)cc1` (single isomer, unassigned) [Compound 22b, 11β-(4-Acetylphenyl)-1'-oxo-spiro[estra-4,9-diene-17β,2'-thiolane]-3-one], in assay [1], the pIC50 is 6.87, the “Relative Binding % Prog.” value amounted to 25% and the “Relative Binding % R5020” value is 2%.
Turning to `CSC1CCC2C3CCC4=CC(=O)CCC4(C)C3CCC12C` (stereo not shown) [17-thiomethylandrost-4-en-3-one], the “affinity relative to progesterone, binding to human progestin receptor” value in the assay on human progestin receptor was 25%.
As to `CN(C)c1ccc([C@H]2C[C@@]3(C)[C@@H](CC[C@@]34CCCS4)[C@@H]3CCC4=CC(=O)CCC4=C32)cc1` [Compound 12, 11β-[4-(N,N-Dimethylamino)phenyl]-spiro[estra-4,9-diene-17β,2'-thiolane]-3-one], in assay [1], the pIC50 was 8.55, the “Relative Binding % Prog.” value is reported as 983% and the “Relative Binding % R5020” value was found to be 105%.
Taken in the same sequence, the figures for `CSc1ccc([C@H]2C[C@@]3(C)[C@@H](CC[C@@]34CCCS4)[C@@H]3CCC4=CC(=O)CCC4=C32)cc1` [Compound 14, 11β-[4-(Methylthio)phenyl]-spiro[estra-4,9-diene-17β,2'-thiolane]-3-one] were 8.39, 651% and 49%.
For `CN(C)c1ccc([C@H]2C[C@@]3(C)[C@@H](CC[C@@]34CCCS4(=O)=O)[C@@H]3CCC4=CC(=O)CCC4=C32)cc1` [Compound 24, 1',1'-Dioxo-11β-[4-(N,N-dimethylamino)phenyl]-spiro[estra-4,9-diene-17β,2'-thiolane]-3-one], in assay [1], the pIC50 was 7.89, the “Relative Binding % Prog.” value was 199% and the “Relative Binding % R5020” value is 29%.
